From the supplement of paper PMC10307832

Legend:
Assay in all cases: relative viability (nuclei count vs DMSO), 5 days (fraction); higher = more cells survive
[1] = compound: CC[C@H](Nc1ncnc2[nH]cnc12)c1nc2cccc(F)c2c(=O)n1-c1ccccc1 [Idelalisib] + Nc1nc2[nH]cc(CCc3ccc(C(=O)N[C@@H](CCC(=O)O)C(=O)O)cc3)c2c(=O)[nH]1 [Pemetrexed] (partner 0.2 µM)
How it was run: (§1)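 Medians of duplicate plates are given as relative viability. That measure is the nuclei count in treated wells divided by the count in vehicle wells. Counts were taken on 4× images of lung cancer cell lines in 1536-well plates, 5 days after pin-tool dosing the day after seeding with one drug alone or a fixed anchor-drug dose plus five library-drug doses (not always all listed) in √10 steps.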

[2] = compound: CC[C@H](Nc1ncnc2[nH]cnc12)c1nc2cccc(F)c2c(=O)n1-c1ccccc1 [Idelalisib] + C[C@@H](Oc1cc(-c2cnn(C3CCNCC3)c2)cnc1N)c1c(Cl)ccc(F)c1Cl [Crizotinib] (partner 1 µM)
How it was run: as §1

[3] = compound: CC[C@H](Nc1ncnc2[nH]cnc12)c1nc2cccc(F)c2c(=O)n1-c1ccccc1 [Idelalisib] + CS(=O)(=O)N1CCN(Cc2cc3nc(-c4cccc5[nH]ncc45)nc(N4CCOCC4)c3s2)CC1 [Pictilisib] (partner 1 µM)
How it was run: as §1

[4] = compound: CC[C@H](Nc1ncnc2[nH]cnc12)c1nc2cccc(F)c2c(=O)n1-c1ccccc1 [Idelalisib] + CCNC(=O)c1noc(-c2cc(C(C)C)c(O)cc2O)c1-c1ccc(CN2CCOCC2)cc1 [Luminespib] (partner 0.01 µM)
How it was run: as §1

LU99A
relative viability ([1]; first compound 0.04 µM): 0.174
relative viability ([1]; first compound 0.1265 µM): 0.153
relative viability ([1]; first compound 0.4 µM): 0.189
relative viability ([1]; first compound 1.265 µM): 0.149
relative viability ([1]; first compound 4 µM): 0.19
relative viability ([2]; first compound 0.04 µM): 0.625
relative viability ([2]; first compound 0.1265 µM): 0.638
relative viability ([2]; first compound 0.4 µM): 0.578
relative viability ([2]; first compound 1.265 µM): 0.614
relative viability ([2]; first compound 4 µM): 0.643
relative viability ([3]; first compound 0.04 µM): 0.324
relative viability ([3]; first compound 0.1265 µM): 0.339
relative viability ([3]; first compound 0.4 µM): 0.263
relative viability ([3]; first compound 1.265 µM): 0.385
relative viability ([3]; first compound 4 µM): 0.279
relative viability ([4]; first compound 0.04 µM): 0.217
relative viability ([4]; first compound 0.1265 µM): 0.274
relative viability ([4]; first compound 0.4 µM): 0.238
relative viability ([4]; first compound 1.265 µM): 0.285
relative viability ([4]; first compound 4 µM): 0.243

NCI-H596
relative viability ([1]; first compound 0.04 µM): 0.52
relative viability ([1]; first compound 0.1265 µM): 0.441
relative viability ([1]; first compound 0.4 µM): 0.49
relative viability ([1]; first compound 1.265 µM): 0.536
relative viability ([1]; first compound 4 µM): 0.487
relative viability ([2]; first compound 0.04 µM): 1.02
relative viability ([2]; first compound 0.1265 µM): 0.902
relative viability ([2]; first compound 0.4 µM): 0.886
relative viability ([2]; first compound 1.265 µM): 0.923
relative viability ([2]; first compound 4 µM): 0.948
relative viability ([3]; first compound 0.04 µM): 0.412
relative viability ([3]; first compound 0.1265 µM): 0.402
relative viability ([3]; first compound 0.4 µM): 0.389
relative viability ([3]; first compound 1.265 µM): 0.405
relative viability ([3]; first compound 4 µM): 0.65
relative viability ([4]; first compound 0.04 µM): 1.13
relative viability ([4]; first compound 0.1265 µM): 0.925
relative viability ([4]; first compound 0.4 µM): 0.827
relative viability ([4]; first compound 1.265 µM): 0.905
relative viability ([4]; first compound 4 µM): 0.847

201T
relative viability ([1]; first compound 0.04 µM): 0.352
relative viability ([1]; first compound 0.1265 µM): 0.318
relative viability ([1]; first compound 0.4 µM): 0.357
relative viability ([1]; first compound 1.265 µM): 0.314
relative viability ([1]; first compound 4 µM): 0.32
relative viability ([2]; first compound 0.04 µM): 1.02
relative viability ([2]; first compound 0.1265 µM): 1.07
relative viability ([2]; first compound 0.4 µM): 0.999
relative viability ([2]; first compound 1.265 µM): 1.08
relative viability ([2]; first compound 4 µM): 1.02
relative viability ([3]; first compound 0.04 µM): 0.686
relative viability ([3]; first compound 0.1265 µM): 0.712
relative viability ([3]; first compound 0.4 µM): 0.59
relative viability ([3]; first compound 1.265 µM): 0.736
relative viability ([3]; first compound 4 µM): 0.661
relative viability ([4]; first compound 0.04 µM): 1.12
relative viability ([4]; first compound 0.1265 µM): 1.07
relative viability ([4]; first compound 0.4 µM): 1.02
relative viability ([4]; first compound 1.265 µM): 1.02
relative viability ([4]; first compound 4 µM): 0.849

HCC-15
relative viability ([1]; first compound 0.04 µM): 0.242
relative viability ([1]; first compound 0.1265 µM): 0.22
relative viability ([1]; first compound 0.4 µM): 0.213
relative viability ([1]; first compound 1.265 µM): 0.22
relative viability ([1]; first compound 4 µM): 0.221
relative viability ([2]; first compound 0.04 µM): 0.809
relative viability ([2]; first compound 0.1265 µM): 0.842
relative viability ([2]; first compound 0.4 µM): 0.72
relative viability ([2]; first compound 1.265 µM): 0.885
relative viability ([2]; first compound 4 µM): 0.762
relative viability ([3]; first compound 0.04 µM): 0.762
relative viability ([3]; first compound 0.1265 µM): 0.748
relative viability ([3]; first compound 0.4 µM): 0.662
relative viability ([3]; first compound 1.265 µM): 0.866
relative viability ([3]; first compound 4 µM): 0.728
relative viability ([4]; first compound 0.04 µM): 0.185
relative viability ([4]; first compound 0.1265 µM): 0.242
relative viability ([4]; first compound 0.4 µM): 0.286
relative viability ([4]; first compound 1.265 µM): 0.26
relative viability ([4]; first compound 4 µM): 0.404
